Earlier results on two substances are cited in US20070154935A1, “HUMAN OBESITY SUSCEPTIBILITY GENE AND USES THEREOF” (INTEGRAGEN, priority 2002, published 2007).

The test system of one series is healthy controls. The following applies: intranasal application.
Series [1] has as its system massively obese child with leptin deficiency mutation. The following applies: one child with leptin deficiency mutation.

As for “adrenocorticotropin4-10 (MEHFRWG; Corticotropin; UniProt P01189 141-147, looked up, fragment) [ACTH4-10]”, in the series on healthy controls, the body fat mass result is “reduced”, the plasma leptin concentrations result is reported as “reduced” and the weight result was “reduced”.
In the case of “recombinant leptin: recombinant leptin given to a child with a leptin deficiency mutation”, the “treatment outcome of morbid obesity” value in series [1] is reported as “treated successfully”.
